For data set [1], the system named is VDCC. The data set is described as follows: VDCC blockade: intracellular Ca2+ (Fluo-4) in SH-SY5Y cells on depolarization with 60 mM KCl. Type of data set: cell-based, human. The procedure: SH-SY5Y cells were plated at 5×10^5 cells per well into Black/Clear Bottom 96-well culture plate, 48 hours before treatment. Cells were loaded with Fluo-4, 5 μM and pluronic acid, 0.1%, for 30 min at 37° C., 5% CO2, following a incubation of 15 min at RT in Krebs-HEPES solution. Immediately cells are exposed to the samples at different concentrations for 10 min. […] After the treatment, the fluorescence is measured in a Fluostar Optima plate reader (BMG) in response to depolarization with 60 mM KCl. The excitation wavelength was 485 nm, and that of emission 520 nm. […] Three compounds isolated from this extract have shown calcium channel blocking properties in SH-SY5Y neuroblastoma cells.

Data set [2] has as its target T1, AChE (from bovine erythrocytes) (Bos taurus, UniProt P23795).
T1 construct: AChE (Sigma Chemical Co. from bovine erythrocytes); purchased Sigma Chemical Co; host or cells: bovine erythrocytes
T1 sequence (P23795 31-614 isoform P23795-2 limits assumed): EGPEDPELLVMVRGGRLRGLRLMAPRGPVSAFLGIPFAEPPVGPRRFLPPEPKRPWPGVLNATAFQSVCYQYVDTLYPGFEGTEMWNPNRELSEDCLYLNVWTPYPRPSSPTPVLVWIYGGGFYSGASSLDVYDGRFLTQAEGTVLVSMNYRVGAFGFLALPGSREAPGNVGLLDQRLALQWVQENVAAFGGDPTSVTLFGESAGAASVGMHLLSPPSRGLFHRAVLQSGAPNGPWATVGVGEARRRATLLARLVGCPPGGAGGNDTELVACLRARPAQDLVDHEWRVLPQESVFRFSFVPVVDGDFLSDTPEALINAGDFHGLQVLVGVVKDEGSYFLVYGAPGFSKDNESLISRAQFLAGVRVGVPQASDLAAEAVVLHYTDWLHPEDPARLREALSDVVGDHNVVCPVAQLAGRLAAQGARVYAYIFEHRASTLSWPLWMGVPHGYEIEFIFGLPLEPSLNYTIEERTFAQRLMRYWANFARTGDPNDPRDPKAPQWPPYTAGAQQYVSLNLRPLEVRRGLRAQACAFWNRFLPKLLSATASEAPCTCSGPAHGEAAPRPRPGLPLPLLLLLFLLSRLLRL
Kind of data set: AChE inhibition (Ellman colorimetric method). Type of data set: biochemical. The following applies: read-out: % inhibition AChE (concentration); for inhibition at 30 µM: 3 × 10^−5 M. The procedure: AChE inhibitory activity was evaluated at 30° C. by the colorimetric method reported by Ellman (Ellman, G. L. et al., 1961, Biochem Pharmacol, 7, 88-95). The assay solution consisted of 0.1 M phosphate buffer pH 8, 0.3 mM 5,5′-dithiobis (2-nitrobenzoic acid) (DTNB, Ellman's reagent), 0.02 units AChE (Sigma Chemical Co. from bovine erythrocytes), and 0.5 mM acetylthiocholine iodide as the substrate of the enzymatic reaction. The compounds tested were added to the assay solution and pre incubated with the enzyme for 5 min at 30° C. After that period, the substrate was added. The absorbance changes at 405 nm were recorded for 5 min with a microplate reader Digiscan 340T, the reaction rates were compared, and the percent inhibition due to the presence of test compounds was calculated. The reaction rate was calculated with, at least, triplicate measurements, and the percent inhibition due to the presence of test compound was calculated relative to the compound-free control.
In general terms: Ellman's reagent forms a yellow product with free thiols.

The target of data set [3] is T2, BuChE from human serum (Homo sapiens, UniProt P06276).
T2 construct: 0.01 units BuChE from human serum; from tissue; host or cells: human serum
T2 sequence (P06276 29-602): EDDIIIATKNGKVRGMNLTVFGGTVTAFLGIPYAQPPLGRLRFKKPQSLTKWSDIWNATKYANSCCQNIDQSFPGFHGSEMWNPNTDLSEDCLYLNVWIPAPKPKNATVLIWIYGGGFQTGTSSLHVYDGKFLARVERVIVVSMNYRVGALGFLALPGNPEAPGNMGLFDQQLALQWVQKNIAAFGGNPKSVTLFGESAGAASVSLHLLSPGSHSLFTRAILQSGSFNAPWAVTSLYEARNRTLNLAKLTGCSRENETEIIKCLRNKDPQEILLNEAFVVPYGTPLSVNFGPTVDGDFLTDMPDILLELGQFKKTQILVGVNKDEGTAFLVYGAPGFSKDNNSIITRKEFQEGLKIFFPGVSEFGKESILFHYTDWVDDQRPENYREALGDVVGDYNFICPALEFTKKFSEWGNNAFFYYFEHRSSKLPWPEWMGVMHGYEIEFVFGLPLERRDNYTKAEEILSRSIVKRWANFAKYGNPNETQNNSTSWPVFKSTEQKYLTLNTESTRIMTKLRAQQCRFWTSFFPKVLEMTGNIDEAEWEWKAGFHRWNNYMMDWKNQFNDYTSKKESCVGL
Kind of data set: BuChE inhibition (Ellman colorimetric method). Type of data set: biochemical. The procedure:
BuChE inhibitory activity was evaluated at 30° C. by the colorimetric method reported by Ellman (Ellman, G. L. et al., 1961, Biochem Pharmacol, 7, 88-95). The assay solution consisted of 0.01 units BuChE from human serum, 0.1 M sodium phosphate buffer pH 8, 0.3 mM 5,5′-dithiobis (2-nitrobenzoic acid) (DTNB, Ellman's reagent), and 0.5 mM butyrylthiocholine iodide as the substrate of the enzymatic reaction. Enzyme activity was determined by measuring the absorbance at 405 nm during 5 minutes with a microplate reader Digiscan 340T. The tested compounds were preincubated with the enzyme for 10 minutes at 30° C. The reaction rate was calculated with, at least, triplicate measurements.

Data set [4] concerns human neuroblastoma cell line SH-SY5Y. It is filed as cell-based. The following applies: for Toxicity (in words): at 10 μM. The procedure:
The cytotoxicity effect of the molecules was tested in the human neuroblastoma cell line SH-SY5Y. These cells were cultured in 96-well plates in minimum essential medium, Ham's F12 medium, supplemented with 10% fetal bovine serum, 1% glutamine and 1% penicillin/streptomycin, and grown in a 5% CO2 humidified incubator at 37° C. Cells were plated at 10^4 cells for each well, at least, 48 hours before treatment. Cells were exposed for 24 hours to the compounds at different concentrations (from 10^−5 to 10^−9), quantitative assessment of cell death was made by measurement of the intracellular enzyme lactate dehydrogenase (LDH) (citotoxicity detection kit, Roche). The quantity of LDH was measured was evaluated in a microplate reader Anthos 2010, at 492 and 620 nm. Controls were taken as 100% viability.

For data set [5], the target named is T3, AChE peripheral site (Bos taurus, UniProt P23795).
T3 sequence (P23795 31-613): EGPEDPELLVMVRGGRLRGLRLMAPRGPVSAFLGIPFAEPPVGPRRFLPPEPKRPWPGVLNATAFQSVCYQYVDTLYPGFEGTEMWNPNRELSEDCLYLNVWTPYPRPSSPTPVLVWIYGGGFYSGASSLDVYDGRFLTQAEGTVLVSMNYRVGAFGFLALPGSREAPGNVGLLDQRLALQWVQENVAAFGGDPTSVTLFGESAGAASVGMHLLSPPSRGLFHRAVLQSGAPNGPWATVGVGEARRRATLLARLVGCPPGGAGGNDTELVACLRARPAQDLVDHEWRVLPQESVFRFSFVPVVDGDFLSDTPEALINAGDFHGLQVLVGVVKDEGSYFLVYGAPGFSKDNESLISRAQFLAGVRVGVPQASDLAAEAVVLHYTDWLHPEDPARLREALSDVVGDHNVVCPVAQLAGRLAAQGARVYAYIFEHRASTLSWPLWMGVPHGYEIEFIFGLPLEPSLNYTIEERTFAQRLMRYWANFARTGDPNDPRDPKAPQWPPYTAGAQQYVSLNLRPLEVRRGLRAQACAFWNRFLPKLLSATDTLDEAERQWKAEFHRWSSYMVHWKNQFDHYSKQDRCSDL
The data set is described as follows: Propidium competition (fluorescence). Type of data set: binding. The following applies: 30 μM compound; 5 μM AChE, 20 μM propidium iodide. The procedure:
Fluorescence was measured in a Fluostar Optima plate reader (BMG). Measurements were carried out in 100 μl solution volume, in 96-well plates. The buffer used was 1 mM Tris/HCl, pH 8.0. 5 μM AChE was incubated, at least 6 hours, with the molecule at different concentrations. 20 μM propidium iodide was added 10 min before fluorescence measurement. The excitation wavelength was 485 mn and that of emission 620 nm.

The mark [6] stands for this setting: SH-SY5Y, 24 hours exposure, LDH.

Results on eight compounds are retold here after patent publication US20080039513A1, “Marine Compounds with Calcium Channel Blocking Properties for the Treatment of Cognitive or Neurodegenerative Diseases” (priority 2004, published 2008).

Read-outs that look alike come from different tables or passages of the source.

Turning to `COC1=C(Br)[C@@H]2OC(=O)C[C@]2(O)C=C1Br` [Compound 1, Aeroplysinin-2], the “% inhibition VDCC (concentration)” value in data set [1] (concentration not given) is 0%. The inhibition at 30 µM turned out to be 7 ± 1% in data set [2] and 0% in data set [3]. The “Toxicity” value in data set [4] (setting [6]) came out at 0.6 µM.
In the case of `COC1=C(Br)[C@H](O)[C@](O)(CC#N)C=C1Br` [Compound 2, Aeroplysinin-1], in data set [1] (concentration not given), the “% inhibition VDCC (concentration)” value came out at 0%. For the same compound, the values for the inhibition at 30 µM in data set [2] and in data set [3] were 19 ± 3% and 0%, respectively. For the same compound, the “Toxicity” value in data set [4] (setting [6]) worked out at 6 µM.
Consider `COC1=C(Br)[C@@H](O)[C@]2(C=C1Br)CC(C(=O)NCCCOc1c(Br)cc(C/C(=N\O)C(=O)NCCc3cnc[nH]3)cc1Br)=NO2` [Compound 8], for which the “% inhibition VDCC (concentration)” value in data set [1] (10^−5 M) was determined as 96 ± 3%; in data set [1] (10^−6 M), 48%; in data set [1] (10^−7 M) it was 9%. In addition, in data set [2], the inhibition at 100 µM came to 0%. The “Toxicity (in words)” value in data set [4] (setting [6]) is on record as “Not toxic”.
For `COC1=C(Br)[C@@H](O)[C@]2(C=C1Br)CC(C(=O)NCCc1cc(Br)c(OCCCNC(=O)C3=NO[C@]4(C=C(Br)C(OC)=C(Br)[C@@H]4O)C3)c(Br)c1)=NO2` [Compound 5, 11,19-dideoxyfistularin], the “% inhibition VDCC (concentration)” value in data set [1] (1.8 × 10^−5 M) is recorded as 34 ± 14%. Besides, the figures for the inhibition at 30 µM in data set [2] and in data set [3] were 63 ± 3% and 57 ± 7%, respectively. In data set [4] (setting [6]), the “Toxicity” value was >100 µM. Moreover, the “Propidium competition (30 μM)” value in data set [5] was “YES”.
For `COC1=C(Br)[C@H](O)[C@@]2(C=C1Br)CC(C(=O)NCCCCNC(=O)C1=NO[C@]3(C=C(Br)C(OC)=C(Br)[C@@H]3O)C1)=NO2` [Compound 3, Aerothionin], the “% inhibition VDCC (concentration)” value in data set [1] (1.8 × 10^−5 M) is 75 ± 17%. Further, the inhibition at 30 µM in data set [2] was determined as 12 ± 1%; in data set [3], 13 ± 1%. Further, in data set [4] (human, 24 h), the “Toxicity” value was found to be 18 µM.
Turning to `COC1=C(Br)[C@@H](O)[C@]2(C=C1Br)CC(C(=O)NCCCOc1c(Br)cc(CCN)cc1Br)=NO2` [Compound 7], the “% inhibition VDCC (concentration)” value in data set [1] (10^−5 M) is recorded as 67 ± 14.5%. For the same compound, the inhibition at 100 µM in data set [2] (10^−4 M) turned out to be 9.5 ± 3%. In data set [2] (10^−5 M), the inhibition at 10 µM was found to be 5 ± 3%. Further, the “Toxicity (in words)” value in data set [4] (setting [6]) is reported as “Not toxic”.
With `COC1=C(Br)[C@@H](O)[C@]2(C=C1Br)CC(C(=O)NCCc1cnc[nH]1)=NO2` [Compound 6], the “% inhibition VDCC (concentration)” value in data set [1] (10^−5 M) is listed as 18 ± 10%. In addition, the inhibition at 100 µM in data set [2] (10^−4 M) was found to be 0%. The “Toxicity (in words)” value in data set [4] (setting [6]) is “Not toxic”.
In the case of `COC1=C(Br)[C@H](O)[C@@]2(C=C1Br)CC(C(=O)NCCCCCNC(=O)C1=NO[C@]3(C=C(Br)C(OC)=C(Br)[C@@H]3O)C1)=NO2` [Compound 4, Homoaerothionin], in data set [1] (1.8 × 10^−5 M), the “% inhibition VDCC (concentration)” value came to 95 ± 4%. Also, the inhibition at 30 µM stood at 9 ± 4% in data set [2] and 10 ± 1% in data set [3]. Besides, the “Toxicity” value in data set [4] (setting [6]) worked out at 6 µM. Also, in data set [5], the “Propidium competition (30 μM)” value is on record as “YES”.
